Values of other authors as cited in patent publication US10306887B2, “Composition and methods for modulation of the octopamine receptor and its homologs” (THE BOARD OF REGENTS OF THE UNIVERSITY OF TEXAS SYSTEMS, priority 2014, dated 2019).
“Also recorded” adds a separate entry of the source.

Tests used:
[1] = test system: mated tdc2 or tβh females
[2] = test system: dissected reproductive system

NCC(O)c1ccc(O)cc1 (stereo not drawn) [OA, β,4-dihydroxyphenethylamine]
egg-laying ([1]; OA feeding, mated tdc2 or tβh mutant females): sufficient to induce egg-laying
sterility ([1]; feeding OA to mated tβh mutant females): rescues sterility
muscle contractions in the ovary ([2]; OA applied to dissected reproductive system, ovary): enhances muscle contractions in the ovary
muscle contractions in the oviduct ([2]; OA applied to reproductive system, oviduct): inhibits them in the oviduct; also recorded: relaxes the oviduct muscle
